Values of other authors as cited in US11826376B2, “Methods of treating heart failure with preserved ejection fraction employing dapagliflozin and compositions comprising the same” (AstraZeneca AB, priority 2018, dated 2023).

Experiments:
human renal SGLT2 = human renal SGLT2 (Homo sapiens, UniProt P31639); details: background statement, no data
human renal SGLT2, sequence (P31639 whole entry): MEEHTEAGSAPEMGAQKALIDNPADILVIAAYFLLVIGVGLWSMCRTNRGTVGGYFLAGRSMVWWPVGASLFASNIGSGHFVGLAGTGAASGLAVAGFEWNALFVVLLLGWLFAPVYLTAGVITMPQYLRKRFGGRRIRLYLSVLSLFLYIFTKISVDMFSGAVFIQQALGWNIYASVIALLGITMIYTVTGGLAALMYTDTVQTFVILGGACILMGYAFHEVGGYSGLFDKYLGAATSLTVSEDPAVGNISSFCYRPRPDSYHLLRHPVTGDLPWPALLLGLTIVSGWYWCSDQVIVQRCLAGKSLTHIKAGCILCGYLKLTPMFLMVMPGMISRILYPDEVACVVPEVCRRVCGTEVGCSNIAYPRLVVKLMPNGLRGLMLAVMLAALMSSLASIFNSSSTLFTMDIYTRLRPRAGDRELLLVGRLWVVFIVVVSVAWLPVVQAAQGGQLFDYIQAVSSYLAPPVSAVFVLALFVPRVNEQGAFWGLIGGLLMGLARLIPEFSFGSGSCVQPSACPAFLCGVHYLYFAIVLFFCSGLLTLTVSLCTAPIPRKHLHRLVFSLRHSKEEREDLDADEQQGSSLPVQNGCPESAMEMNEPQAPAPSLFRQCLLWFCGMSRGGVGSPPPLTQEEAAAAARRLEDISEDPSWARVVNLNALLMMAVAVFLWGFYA

inhibitor of human renal SGLT2 (human renal SGLT2): potent, highly selective
risk of inducing hypoglycaemia (background statement): low risk
SMILES: CCOc1ccc(Cc2cc([C@@H]3O[C@H](CO)[C@@H](O)[C@H](O)[C@H]3O)ccc2Cl)cc1 [Dapagliflozin, dapagliflozin]
albuminuria (Shigiyama et al. 2017): reduce
arterial stiffness (Shigiyama et al. 2017): reduces
blood uric acid (Shigiyama et al. 2017): reduce
systolic blood pressure (Shigiyama et al. 2017): reduce
weight (Shigiyama et al. 2017): reduce
HbA1c (background statement): effectively lowers
